Consider 2 compounds from ChEMBL document CHEMBL3351786, “Drug discovery targeting cell division proteins, microtubules and FtsZ” (Bioorg Med Chem, 2014).

What all share (format): functional
Test [1] concerns A2780. The experiment in a line: Resistance factor, ratio of IC50 for paclitaxel-resistant human 1A9PTX10 cells to ratio of IC50 for human A2780 cells.
For test [2], the system named is A2780. The experiment in a line: Resistance factor, ratio of IC50 for paclitaxel-resistant human 1A9PTX22 cells to ratio of IC50 for human A2780 cells.
In the next test the test system is HeLa. The experiment in a line: Mitotic arrest in human HeLa cells assessed as apoptosis at 5 nM after 24 hrs by TUNEL assay.

In the case of `CCC(=O)O[C@H]1C(=O)[C@@]2(C)[C@H]([C@H](OC(=O)c3cccc(OC)c3)[C@]3(O)C[C@H](OC(=O)[C@H](O)[C@H](C=C(C)C)NC(=O)OC(C)(C)C)C(C)=C1C3(C)C)[C@]1(OC(C)=O)CO[C@@H]1C[C@@H]2O`, the “Ratio IC50” value was 4.8 in the test on A2780 [1] and 5.1 in the test with A2780 [2]. `CCC(=O)O[C@H]1C(=O)[C@@]2(C)[C@H]([C@H](OC(=O)c3ccccc3)[C@]3(O)C[C@H](OC(=O)[C@H](O)[C@H](C=C(C)C)NC(=O)OC(C)(C)C)C(C)=C1C3(C)C)[C@]1(OC(C)=O)CO[C@@H]1C[C@@H]2O`: in the test with HeLa, the Activity turned out to be 70%.
